Consider 17 compounds from patent US6524842B1, “Biodegradation of gasoline oxygenates” (Envirogen, Inc., priority 2000, dated 2003).

The subject of test [1] is strain ENV735. The test can be described thus: Growth substrates for ENV735. The format is cell-based, Hydrogenophaga flava.
Test [2] relates to strain ENV735. The test can be described thus: MTBE degradation assays with ENV735 cells. The format is cell-based, Hydrogenophaga flava.
Test [3] deals with strain ENV735. The test can be described thus: TBA degradation by ENV735 cells. The format is cell-based, Hydrogenophaga flava.
Test [4] relates to strain ENV735. The test can be described thus: [14C]MTBE mineralization to 14CO2. Format: cell-based, Hydrogenophaga flava. Conditions: YE-grown cells, 10 mg/L, within 24 hr. From the text: Cells were collected by centrifugation, washed, and suspended in BSM to an OD550 of 1.0. […] At timed intervals air was passed through the samples and organic compounds and ^14CO2 in the effluent air were trapped (Marinucci, A. C. and R. Bartha, “Apparatus for monitoring the mineralization of volatile ^14C-labeled compounds”, Applied and Environmental Microbiology, 38:1020-1022, (1979)). Oxosol C14 (National Diagnostics, Atlanta, Ga.) served as a CO2 trapping solution and liquid scintillation cocktail. The amount of ^14CO2 produced was quantified by liquid scintillation counting.

The next test relates to ENV 735. Briefly: Membrane bioreactor (MBR1, MBR2) MTBE degradation. The arrangement: species or system Hydrogenophaga flava. Here is the method: A calculated solids retention time (SRT) of 160 days was maintained by removing a portion of the reactor contents each day. The dissolved oxygen concentration in the reactor was maintained at ˜2 mg/L by adding air.
In test [5] the test system is ENV 735-containing culture from MBR1. The test can be described thus: Fluid bed bioreactor (FBR) MTBE degradation. Conditions: flow rate increased 3-fold, 1 hr HRT. The protocol:
A laboratory-scale FBR was constructed from a glass column with Teflon and stainless steel tubing and fittings to minimize abiotic losses. […] The carbon was fluidized to an expanded bed height of 125% of the original bed height by using a gear pump in the recycle line. Contaminated water was fed at a rate of 5.6 to 17 mL/min using a peristaltic pump, corresponding to hydraulic retention times (HRTs) of approximately 3 to 1 h, respectively. The HRT was calculated based on expanded bed volume and feed flow rate (assumes no significant biodegradation occurred in other wetted areas of the reactor).

In test [6] the test system is hydrogen-oxidizing microorganism. The test can be described thus: Bioreactor laboratory testing, continuous operation. Conditions: hydraulic retention time of 2.5 hr to 3 days. An excerpt:
Batch operation can be initiated by inoculating the reactor with the hydrogen-oxidizing microorganism and then adding tertiary butyl alcohol, for example, to a final concentration of from 0.1 to 1% (v/v). The organisms are aerated and allowed to grow until no tertiary butyl alcohol remains in the culture medium. Additional tertiary butyl alcohol can then be added to further increase biomass levels. After sufficient biomass is obtained, a small amount of contaminant (e.g., MTBE) can be added to acclimate the organisms. Additional contaminant can be added after depletion of the prior addition. When sufficient degradation rates are achieved, the reactor can be operated in a continuous mode. Preferably, during continuous and batch operation, the reactor should be operated at a temperature of between 25 and 37° C., with the pH in the range of 6.8 to 7.2, and a dissolved oxygen concentration >2 mg/L. Hydraulic retention time within the reactor should be adjusted to allow sufficient time for degradation of the target compound to below treatment standards. […] Furthermore, the volatile suspended solids (biomass) concentration should be maintained at a relatively high concentration, preferably from 1,000 to 30,000 mg/l depending on the contaminant loading rate.

The test system of test [7] is anaerobic sediment samples. Conditions: the one active anaerobic sediment sample; cited from earlier work.
Setting [8] is: growth of ENV735 on the substrate.

Like-named read-outs stand apart in the source and are kept apart here. A value given as a limit tells only on which side of the number the result lay.

On to `CC(O)C(=O)O` (centres unmarked) [Lactic acid], for which the Growth result in the test with strain ENV735 [1] (setting [8]) is “+/−”.

In the case of `OC[C@H]1O[C@@](CO)(O[C@H]2O[C@H](CO)[C@@H](O)[C@H](O)[C@H]2O)[C@@H](O)[C@@H]1O` [Sucrose], the Growth entry in the test on strain ENV735 [1] (setting [8]) was “+++”.

For the compound `CC(=O)[O-].[Na+]` [Sodium acetate], the Growth entry in the test on strain ENV735 [1] (setting [8]) is “+/−”.

Consider `[HH]` [H2, hydrogen], for which the “Growth on H2 as a sole energy source” value with strain ENV735 [1] (strain ENV735) is listed as “grew readily”. In addition, in the test with strain ENV735 [2] (strain ENV735), the “effect of presence of H2 on MTBE degradation” value is reported as “not inhibited”.

In the case of `CCC(=O)O` [Propionic acid], the Growth result with strain ENV735 [1] (setting [8]) was “−”.

As to `CC(C)(C)O` [TBA, tertiary-butyl alcohol], the Growth result in the test with strain ENV735 [1] is “+++”. The “initial TBA degradation rate” value in the test with strain ENV735 [3] was 30 nmoles TBA/min./mg cell protein.

As for `CC(C)O` [2-Propanol], the Growth result in the test with strain ENV735 [1] (setting [8]) is “−”.

In the case of `CCC(C)C` [Iso-Pentane], the Growth result in the test on strain ENV735 [1] (setting [8]) is listed as “−”.

Regarding `CCCO` [1-Propanol], in the test with strain ENV735 [1] (setting [8]), the Growth result is given as “+/−”.

`N[C@@H](CCC(=O)O)C(=O)O` [Glutamic acid]: in the test on strain ENV735 [1] (setting [8]), the Growth result is given as “+/−”.

As to Casein, the Growth result in the test on strain ENV735 [1] (setting [8]) was “+”.

For `CC(C)(O)C(=O)O` [2-Hydroxy isobutyric acid], in the test with strain ENV735 [1] (setting [8]), the Growth entry is “+”.

`CCC` [Propane]: the Growth entry in the test on strain ENV735 [1] (setting [8]) is “+/−”.

Regarding `COC(C)(C)C` [[^14C]MTBE], the “added [14C]MTBE recovered as 14CO2” value in the test with strain ENV735 [4] was “Approximately 80%”.

Take `CO` [Methanol]: in the test on strain ENV735 [1] (setting [8]), the Growth result is on record as “−”.

In the case of `COC(C)(C)C` [MTBE, methyl-tert-butyl ether], the Growth entry with strain ENV735 [1] (setting [8]) is reported as “+”. In addition, the “initial maximum MTBE oxidation rate” value with strain ENV735 [2] (30° C., YE-grown cells, 25 mg/L MTBE) is reported as 86 nmole MTBE/min./mg total cell protein. In addition, the MTBE removal rate is 42 mg/L/h with ENV 735 (MBR1, 1 d HRT, influent ˜1000 mg/L) and 28 mg/L/h in the test with ENV 735 (MBR2, influent ˜2000 mg/L). The “MTBE stripping as share of MTBE loss” value with ENV 735 (effluent air of MBRs) is less than 5%. In addition, the “removal of added MTBE” value in test [5] is listed as greater than 90%. Also, the “degradation of influent MTBE” value in test [6] is listed as greater than 90%. Further, in test [7], the “transformation of MTBE” value is “about 50%”.

For the compound `CC(=O)C(=O)O` [Pyruvic acid], the Growth result in the test with strain ENV735 [1] (setting [8]) is “+/−”.
